Values quoted from earlier work, collected in patent US5631296A, “Drugs containing S(+)-ibuprofen” (priority 1992, dated 1997).

Columns and labels:
[1] = tested on: serum proteins; details: stereoselective
[2] = tested on: arthritic patients; details: daily dose well below the conventional racemate dosage
[3] = comparatively low dosage
[4] = tested on: cyclooxygenase subunit of the enzyme prostaglandin synthease
[5] = tested on: skin inflammation; details: healthy test subjects, relative to racemate
[6] = tested on: rhesus monkeys
[7] = tested on: humans; details: U.S. Pat. No. 4,851,444

CC(C)Cc1ccc(C(C)C(=O)O)cc1 (racemic) [racemate, 2-(4-isobutylphenyl)propionic acid]
toxic effects directly attributable to accumulation of R(-) in fatty tissue (chronic administration of the racemate): no toxic effects have so far been observed | accumulation of the R(-) enantiomer in the fatty tissue (in vivo): leads to an accumulation of the R(-) enantiomer in the fatty tissue

CC(C)Cc1ccc([C@@H](C)C(=O)O)cc1 [R(-)-ibuprofen]
binding to the serum proteins [1]: competing for the binding site

CC(C)Cc1ccc([C@H](C)C(=O)O)cc1 [S(+)-ibuprofen]
therapeutic effect in arthritic patients [2]: good therapeutic effect | binding to the serum proteins [1]: competing for the binding site | therapeutic action relative to the racemate [3]: the same therapeutic action as the racemate | inhibition of prostaglandin synthesis (mechanism of action found in vitro) [4]: found in vitro only for the S(+) enantiomer | dose-effect curve in skin inflammation model [5]: shifted towards lower dosage relative to that of the racemate | analgesic action [6]: stronger analgesic action | onset and intensity of analgesic effect versus identical amounts of the racemate [7]: starts more rapidly and is more intense
